Patent publication US4584291A, “9-deoxy-9-tetrazolyl-derivatives of clavulanic acid, their preparation and their use” (Beecham Group p.l.c., priority 1980, dated 1986)
In brackets after ≈: the same amount, converted by molar mass.

Experiments:
K. aerogenes E70 [1] = test: standard MIC test, antibacterial activity of compound alone; type: cell-based, Klebsiella aerogenes; settings: for MIC: Klebsiella aerogenes
From the text: (§1) In a standard MIC test the following antibacterial activities were obtained.

E.coli JT39 = test: as above; type: cell-based, Escherichia coli; settings: for MIC: Escherichia coli
From the text: as §1

St. Aureus Russell [2] = test: as above; type: cell-based, Staphylococcus aureus; settings: for MIC: Staphylococcus aureus
From the text: as §1

K. aerogenes E70 [3] = test: standard MIC test, synergy of tetrazolyl derivatives with amoxycillin; type: cell-based, Klebsiella aerogenes
E. coli JT39 = test: as above; type: cell-based, Escherichia coli
From the text: In a standard MIC test the following data were obtained for the synergistic activity of tetrazolyl derivatives with amoxycillin.

St. Aureus Russell [4] = test: as above; type: cell-based, Staphylococcus aureus
[5] = amoxycillin plus compound at 1.0 μg/ml
[6] = amoxycillin plus compound at 5.0 μg/ml

Compound	MIC (K. aerogenes E70 [1]) [mg/L]	MIC (E.coli JT39) [mg/L]	MIC (St. Aureus Russell [2]) [mg/L]	MIC amoxycillin (K. aerogenes E70 [3]; [5]) [mg/L]	MIC amoxycillin (K. aerogenes E70 [3]; [6]) [mg/L]	MIC amoxycillin (E. coli JT39; [5]) [mg/L]	MIC (antibacterial activity) (K. aerogenes E70 [1]) [mg/L]	MIC (antibacterial activity) (E.coli JT39) [mg/L]	MIC (antibacterial activity) (St. Aureus Russell [2]) [mg/L]	MIC amoxycillin (St. Aureus Russell [4]; [5]) [mg/L]	MIC amoxycillin (St. Aureus Russell [4]; [6]) [mg/L]	further results
O=C(O)C1C(=CCn2ncnn2)OC2CC(=O)N21 (centres unmarked) [Example 7, Lithium 9-tetrazol-2-yldoexyclavulanate]	16 (≈ 63.7 µM)	16 (≈ 63.7 µM)	16 (≈ 63.7 µM)									
Nc1nnnn1CC=C1OC2CC(=O)N2C1C(=O)[O-].[Li+] (centres unmarked) [Example 10, Lithium 9-(5-aminotetrazolyl)deoxyclavulanate]				3.1	0.4	4.0	31.2	8	8	0.3	0.04	
CCOC(=O)c1nnnn1CC=C1OC2CC(=O)N2C1C(=O)O (centres unmarked) [Example 14, Lithium 9-(5-ethoxycarbonyltetrazol-1-yl)deoxyclavulanate]	31.2 (≈ 96.5 µM)	8 (≈ 24.7 µM)	8 (≈ 24.7 µM)									
O=C(O)c1nnnn1CC=C1OC2CC(=O)N2C1C(=O)O (centres unmarked) [Example 15, Disodium 9-(5-carboxylatotetrazol-1-yl)deoxyclavulanate]	31.2	16	16									
O=C(O)C1C(=CCn2cnnn2)OC2CC(=O)N21 (centres unmarked) [Example 18, Lithium 9-(tetrazol-1-yl)deoxyclavulanate]	62.5 (≈ 249 µM)	16 (≈ 63.7 µM)	16 (≈ 63.7 µM)									
Cc1nnnn1CC=C1OC2CC(=O)N2C1C(=O)O (centres unmarked) [Example 25, Potassium 9-(5'-methyltetrazol-1'-yl)-9-deoxyclavulanate]	62.5	8	16									
O=C(O)C1C(=CCn2nnnc2-c2ccccc2)OC2CC(=O)N21 (centres unmarked) [Example 27, Potassium 9-(5'-phenyltetrazol-1'-yl)-9-deoxyclavulanate]	> 500	125	4									
O=CNc1nnnn1CC=C1OC2CC(=O)N2C1C(=O)[O-].[Li+] (centres unmarked) [Example 35, Lithium 9-(5-formamidotetrazolyl)deoxyclavulanate]				6.2	1.6	8.0	62.5	31.2	16	0.6	0.16	MIC amoxycillin (E. coli JT39; [6]): 4.0 mg/L
CC1(C)S[C@@H]2[C@H](NC(=O)[C@H](N)c3ccc(O)cc3)C(=O)N2[C@H]1C(=O)O [amoxycillin, reference compound]												MIC amoxycillin (K. aerogenes E70 [3]; amoxycillin alone): 1000 mg/L; MIC amoxycillin (E. coli JT39; amoxycillin alone): 2000 mg/L; MIC amoxycillin (St. Aureus Russell [4]; amoxycillin alone): 500 mg/L
Sodium 9-(5-acetamidotetrazolyl)deoxyclavulanate [Example 12]				3.1	1.5	4.0	31.2	16	16	0.3	0.08	MIC amoxycillin (E. coli JT39; [6]): ≤ 0.5 mg/L
